Test results reported in patent US20130337564A1, “Treatment of Pluripotent Cells” (Janssen Biotech, Inc., priority 2012, published 2013).

Experiments:
[1] = MTS viability (toxicity) assay of cells expressing pluripotency markers; type: cell-based, human; design: Raw data (duplicate), first replicate / Average: unit not given here; conditions: human, MTS on day 4, relative to Activin A + Wnt3a positive control, read-out: % Control (percentage viability of control); for viability at 4 days, 2.5 μM: cmpd conc 2.5 μM; for viability at 4 days, 5 μM: cmpd conc 5 μM; for viability at 4 days, 10 μM: cmpd conc 10 μM
Summary of the method: (§1)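 Cells expressing pluripotency markers, derived from human embryonic stem cells, were plated at 20,000 cells per well in 96-well clear-bottom plates and cultured overnight. Test compounds were applied in assay medium on days 1 and 2, and compound-free medium on days 3 and 4. On day 4, MTS was added and optical density at 490 nm was read in duplicate.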

[2] = system: cells expressing pluripotency markers derived from human embryonic stem cells; assay: as above; type: cell-based; design: Raw data (duplicate), first replicate / Average: unit not given here; conditions: for viability at 10 µM: Homo sapiens, Embryonic stem cell, viability of cells expressing pluripotency markers, relative to control; for Raw data (duplicate), first replicate / Raw data (duplicate), second replicate: MTS viability assay raw reading; for Raw data (duplicate), first replicate: replicate 1; for Raw data (duplicate), second replicate: replicate 2; for Average: average of duplicate MTS raw readings; for Average of raw data (duplicate), optical density at 490 nm: MTS on day 4
Summary of the method: as §1

[3] = system: human embryonic stem cell line H1; assay: Dose titration secondary assay: cell number, H1; type: cell-based; conditions: Homo sapiens, Embryonic stem cell, positive control (Wnt3a/Activin A) normalized to 1.000; for activity at 0.156 µM: Conc 0.156 μM; for activity at 0.313 µM: Conc 0.313 μM; for activity at 0.625 µM: Conc 0.625 μM; for activity at 1.25 µM: Conc 1.25 μM; for activity at 2.5 µM: Conc 2.5 μM; for activity at 5 µM: Conc 5 μM; for activity at 10 µM: Conc 10 μM
Experimental: It was important to confirm the activity of hits identified from primary screening and further analyze the range of activity by dose titration. New samples of a selective subset of primary screening hits were obtained as dry powders, solubilized to make fresh stock reagents, and diluted into secondary confirmation assays to evaluate effects on human embryonic stem cells.
Culture of two human embryonic stem cells (H1 and H9) was conducted as described in Example 1. Colonies of cells were maintained in an undifferentiated, pluripotent state on Matrigel™ ([…]) coated polystyrene plastic, using a 1:30 dilution of Matrigel™ in DMEM:F12 to coat the surface. Cells were split by enzymatic passage every four days on average. Passage was performed by exposing cell monolayers to a solution of collagenase (1 mg/ml; Sigma-Aldrich) for 10 to 60 minutes at 37° C. followed by gentle scraping with a pipette tip to recover cell clusters. Clusters were allowed to sediment by gravity, then washed to remove residual collagenase. Cell clusters were split at a 1:3 ratio for maintenance culture or a 1:1 ratio for subsequent assay. The human embryonic stem cell lines were maintained at less than passage 50 and routinely evaluated for normal karyotypic phenotype and absence of mycoplasma contamination.
Cell clusters of the H1 or H9 human embryonic stem cell lines used in the assay were evenly resuspended in culture medium and plated onto Matrigel™-coated 96-well Packard VIEWPLATES (PerkinElmer) in volumes of 100 μl/well. MEF conditioned medium supplemented with 8 ng/ml bFGF was used for initial plating and expansion. Daily feeding was conducted by aspirating spent culture medium from each well and replacing with an equal volume of fresh medium. Cultures were allowed to expand one to three days after plating prior to initiating assay. Plates were maintained at 37° C., 5% CO2 in a humidified box for the duration of assay.
A subset of hits resulting from primary screening was used for follow-up study and subsequent secondary assays. Twenty compounds available as dry powders were solubilized as 10 mM stocks in DMSO and stored dessicated at […] until use Immediately prior to assay, compound stocks were diluted 1:1000 to make 10 μM test compound in DMEM:F12 base medium (Invitrogen) supplemented with 0.5% FCS (HyClone) and 100 ng/ml Activin A (R&D Biosystems). This was further diluted two-fold in series to make a seven point dilution curve for each compound, also in DMEM:F12 base medium with 0.5% FCS and 100 ng/ml Activin A.
Assay was initiated by aspirating culture medium from cell monolayers in each well followed by three washes in PBS to remove residual growth factors and serum. Test volumes of 100 μl per well were added back containing medium with 0.5% FCS and different concentrations of inhibitor compounds with 100 ng/ml Activin A, without Wnt3a. Positive control wells contained the same base medium with 0.5% FCS and with 20 ng/ml Wnt3a (R&D Biosystems) in the absence of test compound. Negative control wells contained the same base medium with 0.5% FCS, in the absence of Activin A, Wnt3a, or test compound. Assay wells were aspirated and fed again with identical concentrations of test compound or control solutions on day 2 of assay. On days 3 and 4, all assay wells were aspirated and fed with DMEM:F12 supplemented with 2% FCS and 100 ng/ml Activin A in the absence of both test compound or Wnt3a. Parallel negative control wells were maintained on days 3 and 4 in DMEM:F12 base medium with 2% FCS.
At the end of culture, cells in 96-well plates were washed twice with PBS then fixed with 4% paraformaldehyde at room temperature for 20 minutes, washed three times more with PBS, and then permeabilized with 0.5% Triton X-100 for 20 minutes at room temperature. After fixing and permeabilizing, cells were washed again three times with PBS and then blocked with 4% chicken serum (Invitrogen) in PBS for 30 minutes at room temperature. […]

O=C1NC(=O)C(c2nn(CCCO)c3ccccc23)=C1c1cn(-c2cccnc2)c2ccc(Cl)cc12 [Compound 52, 3-(5-Chloro-1-pyridin-3-yl-1H-indol-3-yl)-4-[1-(3-hydroxypropyl)-1H-indazol-3-yl]-1H-pyrrole-2,5-dione]
viability at 4 days, 2.5 μM [1]: 92% | viability at 4 days, 5 μM [1]: 40.1% | viability at 4 days, 10 μM [1]: 2.3% | viability at 10 µM [2]: 110% | Raw data (duplicate), first replicate [2]: 0.911 | Raw data (duplicate), second replicate [2]: 0.884 | Average [2]: 0.898 | Average of raw data (duplicate), optical density at 490 nm ([2]; cmpd conc 2.5 μM): 0.7886 | Average of raw data (duplicate), optical density at 490 nm ([2]; cmpd conc 5 μM): 0.4156 | Average of raw data (duplicate), optical density at 490 nm ([2]; cmpd conc 10 μM): 0.1448 | activity at 0.156 µM [3]: 82.6% | activity at 0.313 µM [3]: 103% | activity at 0.625 µM [3]: 130% | activity at 1.25 µM [3]: 145% | activity at 2.5 µM [3]: 110% | activity at 5 µM [3]: 2.4% | activity at 10 µM [3]: 0%

CN(C)CCCn1c2c(c3ccccc31)C1=C(C(=O)NC1=O)N(c1cccc(Cl)c1)C2 [Compound 101, 4-(3-Chlorophenyl)-6-[3-(dimethylamino)propyl]-5,6-dihydropyrrolo[3′,4′:5,6]pyrido[3,4-b]indole-1,3(2H,4H)-dione]
viability at 4 days, 2.5 μM [1]: 100% | viability at 4 days, 5 μM [1]: 95.9% | viability at 4 days, 10 μM [1]: 1.3% | viability at 10 µM [2]: 100% | Raw data (duplicate), first replicate [2]: 0.791 | Raw data (duplicate), second replicate [2]: 0.768 | Average [2]: 0.779 | Average of raw data (duplicate), optical density at 490 nm ([2]; cmpd conc 2.5 μM): 0.7987 | Average of raw data (duplicate), optical density at 490 nm ([2]; cmpd conc 5 μM): 0.7702 | Average of raw data (duplicate), optical density at 490 nm ([2]; cmpd conc 10 μM): 0.1390 | activity at 0.156 µM [3]: 81.2% | activity at 0.313 µM [3]: 61.7% | activity at 0.625 µM [3]: 69.9% | activity at 1.25 µM [3]: 116% | activity at 2.5 µM [3]: 100% | activity at 5 µM [3]: 76.8% | activity at 10 µM [3]: 49.6%

O=C1NC(=O)C(c2cn(CCOCCOCCO)c3ccccc23)=C1c1cn(CCO)c2ccccc12 [Compound 110, 3-[1-(2-Hydroxyethyl)-1H-indol-3-yl]-4-{1-[2-({2-[(2-hydroxyethyl)oxy]ethyl}oxy)ethyl]-1H-indol-3-yl}-1H-pyrrole-2,5-dione]
viability at 4 days, 2.5 μM [1]: 104% | viability at 4 days, 5 μM [1]: 98.5% | viability at 4 days, 10 μM [1]: 81.6% | viability at 10 µM [2]: 112% | Raw data (duplicate), first replicate [2]: 0.948 | Raw data (duplicate), second replicate [2]: 0.764 | Average [2]: 0.856 | Average of raw data (duplicate), optical density at 490 nm ([2]; cmpd conc 2.5 μM): 0.8272 | Average of raw data (duplicate), optical density at 490 nm ([2]; cmpd conc 5 μM): 0.7879 | Average of raw data (duplicate), optical density at 490 nm ([2]; cmpd conc 10 μM): 0.6747 | activity at 0.156 µM [3]: 97.4% | activity at 0.313 µM [3]: 116% | activity at 0.625 µM [3]: 119% | activity at 1.25 µM [3]: 111% | activity at 2.5 µM [3]: 117% | activity at 5 µM [3]: 53% | activity at 10 µM [3]: 12.9%

O=C1NC(=O)C(c2cn(CCOCCOCCNC3CCCc4ccccc43)c3ccccc23)=C1c1cn(CCNC2CCCc3ccccc32)c2ccccc12 (centres unmarked) [Compound 144, 3-{1-[2-(1,2,3,4-Tetrahydronaphthalen-1-ylamino)ethyl]-1H-indol-3-yl}-4-(1-{2-[(2-{[2-(1,2,3,4-tetrahydronaphthalen-1-ylamino)ethyl]oxy}ethyl)oxy]ethyl}-1H-indol-3-yl)-1H-pyrrole-2,5-dione]
viability at 4 days, 2.5 μM [1]: 23.9% | viability at 4 days, 5 μM [1]: 2.5% | viability at 4 days, 10 μM [1]: 2.4% | viability at 10 µM [2]: 106% | Raw data (duplicate), first replicate [2]: 0.840 | Raw data (duplicate), second replicate [2]: 0.832 | Average [2]: 0.836 | Average of raw data (duplicate), optical density at 490 nm ([2]; cmpd conc 2.5 μM): 0.2898 | Average of raw data (duplicate), optical density at 490 nm ([2]; cmpd conc 5 μM): 0.1473 | Average of raw data (duplicate), optical density at 490 nm ([2]; cmpd conc 10 μM): 0.1464 | activity at 0.156 µM [3]: 59.4% | activity at 0.313 µM [3]: 73.4% | activity at 0.625 µM [3]: 89.5% | activity at 1.25 µM [3]: 55.2% | activity at 2.5 µM [3]: 19.2% | activity at 5 µM [3]: 0% | activity at 10 µM [3]: 0%

CN(C)c1cccc(-n2cc(C3=C(c4nn(CCO)c5ccccc45)C(=O)NC3=O)c3ccccc32)c1 [Compound 145, 3-{1-[3-(Dimethylamino)phenyl]-1H-indol-3-yl}-4-[1-(2-hydroxyethyl)-1H-indazol-3-yl]-1H-pyrrole-2,5-dione]
viability at 4 days, 2.5 μM [1]: 94.5% | viability at 4 days, 5 μM [1]: 68.4% | viability at 10 µM [2]: 105% | Raw data (duplicate), first replicate [2]: 0.831 | Raw data (duplicate), second replicate [2]: 0.822 | Average [2]: 0.826 | Average of raw data (duplicate), optical density at 490 nm ([2]; cmpd conc 2.5 μM): 0.7608 | Average of raw data (duplicate), optical density at 490 nm ([2]; cmpd conc 5 μM): 0.5871 | Average of raw data (duplicate), optical density at 490 nm ([2]; cmpd conc 10 μM): 0.1277 | activity at 0.156 µM [3]: 46.9% | activity at 0.313 µM [3]: 66.5% | activity at 0.625 µM [3]: 71.3% | activity at 1.25 µM [3]: 128% | activity at 2.5 µM [3]: 135% | activity at 5 µM [3]: 33.9% | activity at 10 µM [3]: 2.1%

CN(C)c1ccc(-n2cc(C3=C(c4nn(CCO)c5ccccc45)C(=O)NC3=O)c3cc(Cl)ccc32)cn1 [Compound 148, 3-{5-Chloro-1-[6-(dimethylamino)pyridin-3-yl]-1H-indol-3-yl}-4-[1-(2-hydroxyethyl)-1H-indazol-3-yl]-1H-pyrrole-2,5-dione]
viability at 4 days, 2.5 μM [1]: 20.4% | viability at 4 days, 5 μM [1]: 3.8% | viability at 4 days, 10 μM [1]: 3.5% | viability at 10 µM [2]: 88.8% | Raw data (duplicate), first replicate [2]: 0.753 | Raw data (duplicate), second replicate [2]: 0.687 | Average [2]: 0.720 | Average of raw data (duplicate), optical density at 490 nm ([2]; cmpd conc 2.5 μM): 0.2669 | Average of raw data (duplicate), optical density at 490 nm ([2]; cmpd conc 5 μM): 0.1559 | Average of raw data (duplicate), optical density at 490 nm ([2]; cmpd conc 10 μM): 0.1537 | activity at 0.156 µM [3]: 121% | activity at 0.313 µM [3]: 121% | activity at 0.625 µM [3]: 136% | activity at 1.25 µM [3]: 165% | activity at 2.5 µM [3]: 172% | activity at 5 µM [3]: 101% | activity at 10 µM [3]: 0.2%
